Measurements taken from patent publication US6197797A, “Cyanoguanidines as cell proliferation inhibitors” (Leo Pharmaceutical Products Ltd. A/S (L.o slashed.vens …, priority 1997, dated 2001).

How the values were obtained:
[1] = tested on: Yoshida sarcoma tumour-bearing rats; test: Prolongation of survival time of tumour-bearing rats; type: in vivo, LEW/Mol inbred female rats
Experimental: The prolongation of survival time of tumour-bearing rats was studied in LEW/Mol inbred female rats inoculated with Yoshida sarcoma cells in a number of 2×10^7 cells. Tumour-bearing rats (6 animals per group) were dosed orally once daily from day 3 after the transfer of tumour cells and until death or for a maximum of 21 days or until the body weights had increased by 10% as a consequence of tumour proliferation. The mean survival day of treated versus non-treated rats is used to calculate ILS (Increased Life Span). ILS=((mean treated/mean control)-1)*100%.

[2] = tested on: human breast cancer (MCF-7); test: Inhibition of tumour cell proliferation in vitro ([3H]thymidine incorporation), MCF-7; type: cell-based; details: MCF7, MCF-7, 24 hours, read-out: The median inhibition concentration (IC50, nM) of MCF-7
Experimental: (§1) The inhibition of tumour cell proliferation was studied using different types of human cancer cell lines. The cell lines under investigation were small cell lung carcinoma (NYH), non small cell lung carcinoma (NCI-H460), and breast cancer (MCF-7) using the following general procedure.
(§2) The cells were cultured in vitro for 24 hours in the presence of the compound under investigation. DNA synthesis was measured by incorporation of [3H]thymidine, and the median inhibitory concentrations (IC50) of the compounds were calculated.

[3] = tested on: human small cell lung carcinoma (NYH); test: Inhibition of tumour cell proliferation in vitro ([3H]thymidine incorporation), NYH; type: cell-based; details: 24 hours, read-out: The median inhibition concentration (IC50, nM) of NYH
Experimental: as §1, §2

[4] = tested on: human non small cell lung carcinoma (NCI-H460); test: Inhibition of tumour cell proliferation in vitro ([3H]thymidine incorporation), NCI-H460; type: cell-based; details: NCI-H460, 24 hours, read-out: The median inhibition concentration (IC50, nM) of NCI-H460
Experimental: as §1, §2

[5] = 20 mg/kg p.o. once daily from day 3, ILS=((mean treated/mean control)-1)*100%

| Structure (SMILES) | Increased life span (ILS) % [1, 5] [%] | IC50 [2] [nM] | IC50 [3] [nM] | IC50 [4] [nM] | Increased life span (ILS) % ([1]; 50 mg/kg p.o. once daily from day 3, ILS=((mean treated/mean control)-1)*100%) [%] |
| --- | --- | --- | --- | --- | --- |
| N#CNC(=Nc1ccncc1)NCCCCCc1ccccc1 [Example 1, N-Cyano-N'-(5-phenylpentyl)N"-4-pyridylguanidine] | 49 | 40 |  |  |  |
| N#CNC(=Nc1ccncc1)NCCCCCCCCCc1ccccc1 [Example 5, N-Cyano-N'-(9-phenylnonyl)-N"-4-pyridylguanidine] |  | 29 | 5.3 | 5.8 |  |
| N#CN=C(NCCCC/C=C\c1ccccc1)Nc1ccncc1 [Example 10, (Z)-N-Cyano-N'-(6-phenylhex-5-enyl)-N"-4-pyridylguanidine] | 35 | 54 | 7.3 | 135 |  |
| N#CN=C(NCC/C=C/C=C/c1ccccc1)Nc1ccncc1 [Example 12, (E,E)-N-Cyano-N'-(6-phenylhex-3,5-dienyl)-N"-4-pyridylguanidine] |  | 138 | 5.5 | 49 |  |
| N#CNC(=Nc1ccncc1)NCCCCC#Cc1ccccc1 [Example 14, N-Cyano-N'-(6-phenylhex-5-ynyl)-N"-4-pyridylguanidine] |  | 74 | 6.1 | 78 |  |
| CCCCCCCCCCCCNC(=Nc1ccncc1)NC#N [Example 18, N-Cyano-N'-dodecyl-N"-4-pyridylguanidine] |  | 19 | 5 | 61 |  |
| N#CNC(=Nc1ccncc1)NCCCCCOc1ccccc1 [prior art B, N-Cyano-N'-(5-phenoxypentyl)-N"-4-pyridylguanidine, reference compound] |  |  |  |  | 35 |
